Read-outs that look alike come from different tables or passages of the source. Some results are limits rather than exact numbers.

The values below come from patent publication EP1366764A1, “Method of screening for calcium receptor-active molecules” (The Brigham & Women's Hospital, Inc., priority 1993, dated 1994).

The nature of data set [1]: Serum ionized Ca2+ in parathyroidectomized rats. The class given is in vivo. The source says:
To determine the primary target tissue upon which NPS 467 acts to cause a hypocalcemic response, the para thyroid glands in rats were surgically removed.

The nature of data set [2]: Hypocalcemic activity in vivo (serum or whole blood ionized Ca2+, PTH) in rats.
Description: Male Sprague-Dawley rates (200 g) were maintained on a low calcium diet for one week prior to receiving test substance or vehicle as control.
Rats (male, Sprague-Dawley, 250-300 g) were fed standard rat chow and fasted overnight prior to the experiment.
Another data set deals with rMTC 6-23 cells. The data set is described as follows: Measurement of cytosolic Ca2+ in C-cells (fura-2). In kind it is cell-based, rat. The note with it: for EC50: read-out: EC50 (C-CELL).
The subject of a further data set is rat osteoclasts. In words: Measurement of [Ca2+]i in single rat osteoclasts (indo-1). In kind it is cell-based. The note with it: for EC50: Osteoclast.
A further data set deals with human parathyroid cells. The data set is described as follows: Measurement of [Ca2+]i (fura-2) in human parathyroid cells. In kind it is cell-based.
Data set [3] is described as follows: Net positive charge of the molecule. In kind it is physicochemical.
Data set [4] in a line: Serum ionized Ca2+ in the 5/6 nephrectomized rat (model of secondary hyperparathyroidism). The class given is in vivo, rats. The note with it: 10 mg/kg i.p. The source says:
An accepted and widely used animal model of secondary hyperparathyroidism arising from chronic renal failure is the 5/6 nephrectomized rat. Animals receiving such surgery become initially hypocalcemic and, to maintain serum Ca^2+ levels, there is a compensatory hyperplasia of the parathyroid glands and elevated levels of circulating PTH. Male Sprague-Dawley rats (250 g) received a 5/6 nephrectomy and were allowed to recover for 2 weeks. At this time they were normocalcemic (due to elevated levels of serum PTH).

The next data set deals with T1, Ca^2+ receptor (Homo sapiens, UniProt P41180).
T1 construct: Oocytes were injected with poly(A)^+-enriched mRNA from human parathyroid tissue; expressed in transfected cells; host or cells: Xenopus laevis oocytes injected with poly(A)+ mRNA from human hyperplastic parathyroid glands (secondary HPT)
T1 sequence (P41180 20-1078): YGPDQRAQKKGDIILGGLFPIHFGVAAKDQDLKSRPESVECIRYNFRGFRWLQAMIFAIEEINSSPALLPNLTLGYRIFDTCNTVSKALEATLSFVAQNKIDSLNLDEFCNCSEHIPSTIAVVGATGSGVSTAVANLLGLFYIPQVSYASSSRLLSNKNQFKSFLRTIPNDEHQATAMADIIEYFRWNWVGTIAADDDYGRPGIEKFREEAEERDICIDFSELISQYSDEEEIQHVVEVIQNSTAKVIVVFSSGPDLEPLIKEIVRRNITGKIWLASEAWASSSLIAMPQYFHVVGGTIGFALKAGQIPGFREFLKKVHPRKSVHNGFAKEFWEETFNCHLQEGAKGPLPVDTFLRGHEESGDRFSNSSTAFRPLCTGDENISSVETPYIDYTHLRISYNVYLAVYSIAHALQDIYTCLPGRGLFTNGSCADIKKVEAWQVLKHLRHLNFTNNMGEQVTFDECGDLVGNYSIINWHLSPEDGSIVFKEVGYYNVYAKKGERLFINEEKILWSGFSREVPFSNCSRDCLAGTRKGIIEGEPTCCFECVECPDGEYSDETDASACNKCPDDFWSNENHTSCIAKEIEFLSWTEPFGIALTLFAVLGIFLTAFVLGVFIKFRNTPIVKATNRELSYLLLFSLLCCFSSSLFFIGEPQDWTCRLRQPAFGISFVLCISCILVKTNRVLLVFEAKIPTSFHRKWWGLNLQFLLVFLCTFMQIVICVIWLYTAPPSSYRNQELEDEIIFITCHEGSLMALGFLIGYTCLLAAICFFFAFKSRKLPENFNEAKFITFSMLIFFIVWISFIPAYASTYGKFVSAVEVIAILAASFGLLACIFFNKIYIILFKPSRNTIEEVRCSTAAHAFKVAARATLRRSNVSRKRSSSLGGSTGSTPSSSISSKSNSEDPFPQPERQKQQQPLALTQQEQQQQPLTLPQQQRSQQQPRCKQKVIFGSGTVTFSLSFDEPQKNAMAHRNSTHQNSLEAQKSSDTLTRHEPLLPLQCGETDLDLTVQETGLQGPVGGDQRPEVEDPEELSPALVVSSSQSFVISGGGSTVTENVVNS
In words: Cl- current in Xenopus oocytes injected with human parathyroid cell mRNA. The note with it: oocytes injected with mRNA from human parathyroid cells. In kind it is cell-based.

[5] abbreviates: rat osteoclasts, indo-1, "inactive" = no increase in cytosolic Ca2+ at 1 mM or 1-5 mM (footnote).
Where [6] appears, read: rMTC 6-23 cells, fura-2, "inactive" = no increase in cytosolic Ca2+ at 1 mM or 1-5 mM (footnote).

Protocol for human parathyroid cells: Human parathyroid glands, obtained from patients undergoing surgical removal of parathyroid tissue for primary or uremic hyperparathyroidism (HPT), were treated similarly to bovine tissue. Glands were trimmed of excess fat and connective tissue and then minced with a fine scissors into approximate cubes of 2-3 mm. Dissociated parathyroid cells were prepared by collagenase digestion. Dissociated cells were then purified by centrifugation in Percoll buffer. The resultant parathyroid cell preparation was essentially devoid of red blood cells, adipocytes, and capillary tissue as assessed by phase contrast microscopy and Sudan black B staining. Dissociated and purified parathyroid cells were present as small clusters containing 5 to 20 cells.
The cells were then pelleted, resuspended in the same buffer lacking the ester, and incubated a further 15 min at 37°C. The cells were subsequently washed twice with PCB containing 0.5 mM CaCl2 and 0.5% BSA and maintained at room temperature (about 20°C). […] The concentration of cells in the cuvette used for fluorescence recording was 1-2 x 10^6/ml.
The fluorescence of indicator-loaded cells was measured at 37°C in a spectrofluorimeter (Biomedical Instrumentation Group, University of Pennsylvania, Philadelphia, PA) equipped with a thermostated cuvette holder-and magnetic stirrer using excitation and emission wavelengths of 340 and 510 nm, respectively. […]

Turning to `COc1cccc([C@@H](C)NCCCc2ccccc2Cl)c1` [NPS R-568], the “hypocalcemic response in parathyroidectomized rats” value in data set [1] (oral administration) is “fails to elicit a hypocalcemic response”. For the same molecule, in data set [2] (Rattus norvegicus, read-out: ED50 for decrease in the levels of serum Ca^2+, oral administration to rats), the ED50 (commonly the midpoint of the dose-response relation) was 7 mg/kg. The EC50 in the data set on rMTC 6-23 cells (Rattus norvegicus, rMTC 6-23 cells, fura-2, "inactive" = no increase in cytosolic Ca2+ at 1 mM or 1-5 mM (footnote)) is above 300 µM; in the data set with rat osteoclasts (setting [5]) it was 200 µM; in the data set on human parathyroid cells (read-out: EC50 for the mobilization of intracellular Ca^2+ / increase in [Ca^2+]i, human parathyroid cells (adenoma)), 3000 nM.

Turning to `COc1cccc(C(C)NCCCc2ccccc2)c1` (racemic) [NPS 467], in data set [2] (25 mg/kg (Fig. 40)), the “return of hypocalcemic effect toward control” value is on record as “returned toward control levels after 24 hours” and the “time of maximal hypocalcemic effect” value is listed as “maximal within three hours”. In addition, in data set [2] (any of the doses examined), the “serum albumin or phosphate levels” value was “no change”. In addition, the “circulating levels of PTH” value in data set [2] (doses effective in lowering blood Ca2+, preliminary studies) is recorded as “dose-dependent reduction”. Moreover, the “serum or whole blood Ca^2+” value in data set [2] (i.p., low calcium diet, three hours after administration) is listed as “dose-dependent reduction”.

As for `CCC[C@@H]1C[C@@H](C(=O)N[C@@H]([C@H]2O[C@H](SC)[C@H](O)[C@@H](O)[C@H]2O)[C@@H](C)O)N(C)C1` [lincomycin], the “Net (+) Charge” value in data set [3] (at physiological pH (pH 7.3)) was “+1”.

As for `NCCCCNCCCN` [spermidine], in data set [3] (at physiological pH (pH 7.3)), the “Net (+) Charge” value is “+3”. In the data set on rat osteoclasts (1 mM), the “increase in [Ca^2+]i, % of that evoked by a maximal concentration of extracellular Ca^2+” value was “about 10%”.

Take `[H]/N=C(/N)N[C@H]1[C@H](O)[C@@H](O)[C@H](O[C@@H]2O[C@@H](C)[C@](O)(C=O)[C@H]2O[C@@H]2O[C@@H](CO)[C@H](O)[C@@H](O)[C@@H]2NC)[C@@H](N/C(N)=N\[H])[C@@H]1O` [streptomycin]: the “Net (+) Charge” value in data set [3] (at physiological pH (pH 7.3)) is reported as “+3”.

Consider gentamicin, for which the “Net (+) Charge” value in data set [3] (at physiological pH (pH 7.3)) is “+5”.

For the molecule `COc1cccc([C@@H](C)NCCCc2ccccc2)c1` (single isomer, unassigned) [NPS R-467], the “change in serum ionized Ca^2+ levels” value in data set [1] (10 mg/kg i.p., single dose, over 6 hours) is listed as “did not cause any change”. Further, in data set [2] (10 mg/kg i.p., single dose, rats on normal calcium-replete diet, at maximum), the “decrease in serum ionized Ca^2+ from the control level” value was 22%. In data set [2] (10 mg/kg i.p., normal diet), the “time serum ionized Ca^2+ remained depressed” value was “up to 6 hours” and the “time to maximal fall in serum ionized Ca^2+” value was at most 1 h. In addition, the “potency in lowering serum Ca^2+ in vivo, R- versus S-isomer” value in data set [2] (each compound at 5 mg/kg body weight) is given as “more potent than the S-isomer”. In addition, the “serum levels of ionized Ca^2+ after oral dosing” value in data set [2] (single oral dose in corn oil by gavage, three hours, fasted rats) is given as “dose-dependent reduction”. In the data set on rat osteoclasts (setting [5]), the EC50 was above 100 µM. In addition, the “time to fall in serum ionized Ca^2+” value in data set [4] is at most 2 h. In data set [4] (5/6 nephrectomized rats, 2 weeks after surgery), the “serum ionized Ca^2+ levels, % of controls” value is given as 83 % of controls.

As to `NCCNCCNCCNCCN` [Tetraethylenepentamine (TEPA), Tetraethylenepentamine], the “Net (+) Charge” value in data set [3] (at physiological pH (pH 7.3)) is listed as “+5”.

As to `NCCNCCNCCN` [Triethylenetramine (TETA), triethylenetetramine], the “Net (+) Charge” value in data set [3] (at physiological pH (pH 7.3)) was “+4”.

Turning to `NCCCNCCCCNCCCN` [spermine], the “effect on basal [Ca^2+]i” value in the data set on rMTC 6-23 cells (spermine 10 mM, neomycin B 5 mM) is given as “without effect”. Further, in the data set on rat osteoclasts (neomycin 10 mM (25 mM extracellular Ca2+), spermine 20 mM, verapamil 100 µM), the “effect on the response to subsequent extracellular Ca^2+” value was “did depress the response to extracellular Ca^2+”. The “increases in [Ca^2+]i in rat osteoclasts” value in the data set on rat osteoclasts (neomycin 10 mM, spermine 10 or 20 mM) is reported as “Neither neomycin (10 mM) nor spermine (10 or 20 mM) caused increases”. In addition, the “increase in [Ca^2+]i in osteoclasts” value in the data set on rat osteoclasts (neomycin B 1 mM, spermine 1 or 5 mM) was “failed to evoke any increase in [Ca^2+]i”. For the same molecule, in the data set on human parathyroid cells (300 µM), the “increase in [Ca^2+]i” value was “only a small increase in [Ca^2+]i”.

Consider `NCCCCCCCCCCCCN` [1,12-diaminododecane (DADD), 1,12-diaminododecane], for which, in data set [3] (at physiological pH (pH 7.3)), the “Net (+) Charge” value is listed as “+2”.

Consider `C1CNCCNCCNCCNCCNCCN1` [hexacyclen, 1,4,7,10,13,16-hexaaza-cyclooctadecane], for which the “Net (+) Charge” value in data set [3] (at physiological pH (pH 7.3)) is given as “+6”. Further, the “concentration causing the mobilization of intracellular Ca^2+ in oocytes” value on Ca^2+ receptor turned out to be 135 µM.

For the molecule `NCCCN1CCCN(CCCN)CCN(CCCN)CCCN(CCCN)CC1` [NPS 383], the “Net (+) Charge” value in data set [3] (at physiological pH (pH 7.3)) is given as “+8”.

Take `COc1ccc(CCN(C)CCCC(C#N)(c2ccc(OC)c(OC)c2)C(C)C)cc1OC` (stereo not drawn) [verapamil]: the “increase in [Ca^2+]i” value with rat osteoclasts (100 µM) was “caused no detectable increase in [Ca^2+]i”.

Turning to `NCCCNCCCCNCCCNCCCN(O)CCCNC(=O)Cc1c[nH]c2cccc(O)c12` [NPS 015], the “EC50 (C-CELL)” value in the data set with rMTC 6-23 cells (setting [6]) is “inactive”. The half-inhibitory concentration (IC50) (usually the concentration that gives 50% inhibition) in the data set on rMTC 6-23 cells (read-out: IC50 for block of extracellular Ca^2+-induced increases in [Ca^2+]i, rMTC cells, block of the L-type voltage-sensitive Ca2+ channel) stood at 3000 nM.

On to `NC[C@H]1O[C@H](O[C@H]2[C@H](O)[C@@H](O[C@H]3O[C@H](CO)[C@@H](O)[C@H](N)[C@H]3O)[C@H](N)C[C@@H]2N)[C@H](N)[C@@H](O)[C@@H]1O` [bekanamycin], for which the “Net (+) Charge” value in data set [3] (at physiological pH (pH 7.3)) is listed as “+5”.

For `NCCCNCCCCNCCCNCCCN(O)CCCNC(=O)Cc1c[nH]c2ccccc12` [NPS 017], in the data set on rat osteoclasts (setting [5]), the “EC50 (OSTEOCLAST)” value was “inactive”.

In the case of `NC(=O)C[C@H](NC(=O)Cc1c[nH]c2cccc(O)c12)C(=O)NCCCCCNCCCNCCCNC(=O)[C@@H](N)CCCN=C(N)N` [Argiotoxin-659], the “Net (+) Charge” value in data set [3] (at physiological pH (pH 7.3)) is on record as “+4”.

`NCCCNCCCCNCCCNCCCNCCCNC(=O)Cc1c[nH]c2ccccc12` [NPS 019]: the EC50 with rMTC 6-23 cells (setting [6]) is 5 µM.

“N^1,N^1,N^5,N^14,N^14-tetrakis-(3-aminopropyl)spermine [NPS 382]”: the “Net (+) Charge” value in data set [3] (pH 7.3) is recorded as “+8”. Further, the “concentration causing the mobilization of intracellular Ca^2+ in oocytes” value on Ca^2+ receptor was found to be 5000 µM.

Take `NCCCN(CCCN)CCCN(CCCN)CCCCN(CCCN)CCCN(CCCN)CCCN` [NPS 381, N^1,N^1,N^5,N^10,N^14,N^14-hexakis-(3-aminopropyl) spermine]: the “Net (+) Charge” value in data set [3] (at physiological pH (pH 7.3)) is “+10”.
